The values that follow come from patent US11312695B2, “Nutrients to enhance load-induced muscle hypertrophy” (The Regents of the University of California, priority 2020, dated 2022).

The target in this experiment is T1, purified human SIRT1 (Homo sapiens, UniProt Q96EB6).
T1 sequence (Q96EB6 1-747): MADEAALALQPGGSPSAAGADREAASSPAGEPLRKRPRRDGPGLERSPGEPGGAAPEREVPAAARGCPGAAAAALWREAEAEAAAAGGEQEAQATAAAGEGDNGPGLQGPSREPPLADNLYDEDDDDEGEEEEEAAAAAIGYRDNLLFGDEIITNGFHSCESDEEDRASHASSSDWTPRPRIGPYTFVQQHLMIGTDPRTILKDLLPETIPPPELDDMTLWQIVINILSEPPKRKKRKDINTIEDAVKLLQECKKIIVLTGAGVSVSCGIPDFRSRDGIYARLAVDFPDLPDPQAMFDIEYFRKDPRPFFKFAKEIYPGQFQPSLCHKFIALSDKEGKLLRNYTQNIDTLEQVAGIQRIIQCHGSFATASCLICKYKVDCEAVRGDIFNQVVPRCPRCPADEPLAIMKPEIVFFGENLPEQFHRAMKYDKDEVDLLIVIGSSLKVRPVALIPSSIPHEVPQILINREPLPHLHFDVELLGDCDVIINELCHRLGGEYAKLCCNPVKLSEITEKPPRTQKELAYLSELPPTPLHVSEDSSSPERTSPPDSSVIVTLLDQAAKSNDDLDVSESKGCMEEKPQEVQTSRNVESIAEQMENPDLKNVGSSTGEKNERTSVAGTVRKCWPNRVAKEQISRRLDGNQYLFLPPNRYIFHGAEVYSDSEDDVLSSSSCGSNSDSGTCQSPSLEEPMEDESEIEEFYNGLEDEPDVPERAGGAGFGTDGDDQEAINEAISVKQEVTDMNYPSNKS
Description: SIRT1 inhibitor screen (mobility shift assay, p53 substrate). Type of experiment: biochemical. The settings on record: 2 ng/μl SIRT1, 3 μM p53 substrate; for inhibition at 5 µM / percent inhibition of SIRT1 at 5 μM: 5 μM compound; for inhibition at 5 µM: read-out: percent inhibition of SIRT1 at 5 μM; for inhibition at 50 µM / percent inhibition of SIRT1 at 50 μM: 50 μM compound; for inhibition at 50 µM: read-out: percent inhibition of SIRT1 at 50 μM. Here is the method: The NatProd Collection library (MicroSource Discovery Systems, Inc. Gaylordsville, Conn.) in ten source plates was screened at two doses (50 μM and 5 μM final in the reaction mixture, duplicate for each dose). The inhibitory activity of the compounds was assessed against 2 ng/μ1 purified human SIRT1 using 3 μM p53 as a substrate. The assay was a mobility shift assay based on charge differences before and after electrophoretic separation of product from fluorescently labeled substrate read using a Caliper EZ Reader (Perkin Elmer, Boston, Mass.). All reactions took place in the presence of excess nicotinamide adenine dinucleotide and the known SIRT1 inhibitor suramin was used as a control.

The structures appear in SMILES notation.

A word on the inhibition: it is the relative decrease from the control value, in per cent.

`CC1=C(O)C(=O)C=C2C1=CC=C1[C@@]2(C)CC[C@@]2(C)[C@@H]3C[C@](C)(C(=O)O)CC[C@]3(C)CC[C@]12C` [Celastrol]: the inhibition at 5 µM stood at 101% and the inhibition at 50 µM came to 100%.

With `Cc1c(O)c(O)cc2c1CC=C1[C@@]2(C)CC[C@@]2(C)[C@@H]3C[C@](C)(C(=O)O)CC[C@]3(C)CC[C@]12C` [Dihydrocelastrol], the inhibition at 5 µM is 84% and the inhibition at 50 µM came out at 99%.

`O=C(O[C@@H]1Cc2c(O)cc(O)cc2O[C@@H]1c1ccc(O)c(O)c1)c1cc(O)c(O)c(O)c1` [Epicatechin monogallate]: the “percent inhibition of SIRT1 at 5 μM” value came out at 66 and the “percent inhibition of SIRT1 at 50 μM” value came to 99.

Regarding `O=C(O[C@@H]1Cc2c(O)cc(O)cc2O[C@@H]1c1cc(O)c(O)c(O)c1)c1cc(O)c(O)c(O)c1` [Epigallocatechin-3-monogallate], the “percent inhibition of SIRT1 at 5 μM” value is reported as 72 and the “percent inhibition of SIRT1 at 50 μM” value is 99.
